According to PubChem BioAssay AID179 (DTP/NCI, 2004):
Several values for one entry are separate records, joined by “and”; a condition that tells them apart may be missing. Identical values can stand only once. Activity calls are given as the source filed them.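 How the source made its calls: active means compounds giving half or more protection of infected cells from virus-caused growth loss, again on retest; inactive means the rest.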 Where a SMILES comes first, the peptide text is derived from it.

Test system: CEM cells HIV-1 protection, formazan growth assay
Assay: NCI AIDS Antiviral Assay
Conditions: for IC50: measured here: growth of uninfected CEM cells
Procedure, shortened: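 Human CEM cells, uninfected and HIV-1-infected, received five drug concentrations, and growth was read by soluble formazan assay. Compounds giving at least 50% protection were retested; reproducible 100% protection defined confirmed active.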

CC(=O)Nc1nnc(S(C)(=O)=O)s1
EC50: > 1120 µM | IC50: 851 µM

CCCCC(C)/C=C/C(=O)C1=C(O)/C(=C/C(=O)O)OC1=O (stereo unspecified)
EC50: 302 µM | IC50: 851 µM

Cc1ccc2c(CC(=O)O)cc(=O)oc2c1C
EC50: > 200 µM | IC50: 155 µM

CN(C)CCCNc1ccc([N+](=O)[O-])c2nc3ccccc3c(N)c12
EC50: > 200 µM | IC50: 0.209 µM

CC1CN=C(Nc2ccc(S(N)(=O)=O)cc2)S1 (stereo unspecified)
EC50: > 200 µM | IC50: 178 µM

COC(=O)C(=O)C1(CCC(C)=O)c2ccccc2-c2c(C)ccc(C)c21 (stereo unspecified)
outcome: inactive

CCOC(=O)/C(SC#N)=C(/N)N1CCCC1
EC50: > 200 µM | IC50: > 200 µM

CC1(O)CC2C(CC1SCc1ccccc1)C2(C)C (stereo unspecified)
EC50: > 200 µM | IC50: 34.7 µM and 20 µM

CCCN1C(=O)c2cc(=O)n(Cc3ccccc3)c(O)c2C1C (stereo unspecified)
EC50: > 115 µM | IC50: > 115 µM

CN1CC[C@]2(C)c3ccc(O)cc3CC3CCCC1C32C (stereo partly specified)
outcome: inactive

CCC(C#N)NC(=O)NC(C#N)CC (stereo unspecified)
EC50: > 200 µM | IC50: 107 µM

CC/C(=N/OC(=O)NC)c1ccccc1
EC50: > 200 µM | IC50: > 200 µM

CCCc1nn2c(-c3ccccc3)nnc2o1
EC50: > 200 µM | IC50: 63.1 µM

Cc1ccc(NC(=O)/C(=N\NC(N)=O)c2c(O)c3ccccc3[nH]c2=O)cc1
EC50: > 95.5 µM | IC50: > 95.5 µM

CCOC(=O)/C(CCCC#N)=N/O
EC50: > 200 µM | IC50: > 200 µM

C=CCn1cnc2c(=O)[nH]c(Nc3ccccc3)nc21
EC50: > 151 µM | IC50: > 151 µM

CCC(C)C(NC(=O)C(CCCN=C(N)N)NC(=O)C(CC(N)=O)NC(=O)C(Cc1cnc[nH]1)NC(=O)C(N)CC(C)C)C(=O)NC(C(=O)NC(CC(C)C)C(=O)NC(C(=O)NC(Cc1cnc[nH]1)C(=O)O)C(C)O)C(C)CC (stereo unspecified) (H-LHNRIILTH-OH; configuration not given here)
EC50: > 44.7 µM | IC50: > 44.7 µM

O=C(NCC1(O)N=C(c2ccc(F)cc2)c2ccsc2-n2cccc21)c1ccc(Cl)cc1Cl (stereo unspecified)
EC50: > 200 µM | IC50: 18.2 µM

CC(Oc1ccc(OCC2CCCCC2)cc1)C(N)=O (stereo unspecified)
EC50: > 36.3 µM | IC50: 15.1 µM

Cn1c(=O)c(Cc2c(O)c3ccccc3n(C)c2=O)c(O)c2ccccc21
EC50: > 7.24 µM | IC50: > 7.24 µM

Cc1cc(NC(=O)Nc2ccc(N=Nc3cc(S(=O)(=O)[O-])c4cccc(S(=O)(=O)[O-])c4c3)c(C)c2)ccc1N=Nc1cc(S(=O)(=O)[O-])c2cccc(S(=O)(=O)[O-])c2c1.[Ga]
EC50: > 75.9 µM | IC50: 13.5 µM

O=c1cc(-c2ccc3c(c2)OCO3)oc2c(Cl)cc(Cl)cc12
EC50: > 100 µM | IC50: 57.5 µM

Cc1ccc2c(c1)nc1c3ccccc3[nH]n21
EC50: > 5.89 µM | IC50: > 5.89 µM

CC(C)COC(=O)N1N=NC2C3CC(=O)C(O3)C21 (stereo unspecified)
EC50: > 708 µM | IC50: 123 µM

O=C1CCCCCCCCCC(=O)Nc2ccccc2-c2ccccc2N1
outcome: inactive

CC(C)CN1CN(c2ccccc2)C2(CCN(CC(C)(c3ccc(F)cc3)C3OCCO3)CC2)C1=O (stereo unspecified)
EC50: > 100 µM | IC50: 12.6 µM

CC(C)(C)[Si](C)(C)OCCC1CC2(S(=O)(=O)C3=CC=C=C=C3)ON1CC2S(=O)(=O)c1ccccc1 (stereo unspecified)
EC50: > 35.5 µM | IC50: > 35.5 µM

O.O.O=C(O)C(=O)O.O=C(O)C(=O)O.[Cu]
EC50: > 200 µM | IC50: 20.9 µM

NC(N)=NC(N)=Nc1ccc(Sc2ccc(N=C(N)N=C(N)N)cc2)cc1
EC50: > 200 µM

O=P(CCOc1ccccc1OCCP(=O)(c1ccccc1)c1ccc2c(c1)OCCOCCOCCOCCO2)(c1ccccc1)c1ccc2c(c1)OCCOCCOCCOCCO2 (stereo unspecified)
EC50: > 263 µM | IC50: > 263 µM

COc1ccc(/C=c2\sc3n(c2=O)CCN=3)cc1
outcome: inactive

CC1(C)OP(=O)(c2ccccc2)C=C1Sc1ccc([N+](=O)[O-])cc1[N+](=O)[O-] (stereo unspecified)
EC50: 44.7 µM | IC50: 105 µM

CC(C)CCCC(C)[C@H]1CC[C@H]2[C@@H]3CC[C@H]4C[C@@H](CCC=C(c5cc(Cl)c(O)c(C(=O)O)c5)c5cc(Cl)c(O)c(C(=O)O)c5)CC[C@]4(C)[C@H]3CC[C@]12C (stereo partly specified) (tested in a mixture with another compound)
EC50: > 100 µM | IC50: 40.7 µM

OCC(O)COc1ccc(Br)cc1 (stereo unspecified)
EC50: > 1000 µM | IC50: 646 µM

CCSc1nnc(Sc2c3ccccc3nc3ccccc23)s1
EC50: > 200 µM | IC50: 2.82 µM

OCCN1CCN(CC/C=C2/c3ccccc3Sc3ccc(Cl)cc32)CC1
EC50: > 200 µM | IC50: 7.41 µM

COC(=O)CC(C(C(=O)OC)C(=O)OC)N1C(=O)OCC1c1ccccc1 (stereo unspecified)
EC50: > 135 µM | IC50: > 135 µM

COC(=O)c1cc(C(=O)O)c(=O)n2ccccc12
EC50: > 200 µM | IC50: 174 µM

Oc1ccccc1/C=C/c1csnn1
EC50: > 178 µM | IC50: > 178 µM

O=c1oc2c/c(=C\c3ccccn3)c(=O)c3cccc1c3-2
EC50: > 200 µM | IC50: 3.72 µM

O=C(NC1C2CC3CC(C2)CC1C3)c1cc(/C=C/c2ccccc2)[nH]c(=S)n1 (stereo unspecified)
EC50: > 34.7 µM | IC50: > 34.7 µM

C=CCc1ccc(Oc2cc(CC=C)c3c(c2O)O[C@@H](CO)[C@H]3c2ccc(O)c(-c3cc(CC=C)ccc3O)c2)cc1
EC50: > 100 µM | IC50: > 100 µM

COc1ccc(-n2nc(C)cc(Cl)c2=O)cc1
EC50: > 145 µM | IC50: > 145 µM
